Columns and labels:
Conditions in all cases: 48 h
NOMO1 [1] = experiment: AUC of viability dose-response curve (% viability x log10 dose units); higher = less sensitive
Method in brief: (§1)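 Leukemia cells adapted to each medium were seeded at 500 or 1000 cells/well in 1536-well plates and dosed with library compounds in DMSO at 11 threefold doses from 47 μM to 0.79 nM for 48 h at 37°C. CellTiter-Glo One luminescence was normalised per plate to DMSO and cell-free wells, then fitted with a four-parameter log-logistic model over log10 doses. Area under the curve was taken from this fit by the trapezoidal rule, with curves above full viability scaled and curves failing quality control removed.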

P12-Ichikawa [2] = experiment: as above
Method in brief: as §1

SEM cells [3] = experiment: as above
Method in brief: as §1

NOMO1 [4] = experiment: cell viability relative to DMSO control; higher = less cytotoxic
Method in brief: (§2)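 Three leukemia lines were tested: NOMO1 and SEM at 500 cells/well and P12-Ichikawa at 1000 cells/well. Each was adapted for at least four passages in each medium and seeded in 5 μl in 1536-well plates, and library compounds in DMSO were pin-dosed from 47 μM to 0.79 nM in 11 threefold steps. After 48 h at 37°C, CellTiter-Glo One luminescence was read. Viability is a percentage relative to DMSO wells on each plate, with cell-free wells as background.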

P12-Ichikawa [5] = experiment: as above
Method in brief: as §2

SEM cells [6] = experiment: as above
Method in brief: as §2

O=NN(CCCl)C(=O)NC1CCCCC1
AUC of viability dose-response curve
Conditions	NOMO1 [1]	P12-Ichikawa [2]	SEM cells [3]
HPLM + 10% dialyzed FBS	474	468	445
RPMI 5 mM glucose + 10% FBS	472	453	475
RPMI 5 mM glucose + 10% dialyzed FBS	475	462	433

cell viability [%]
Conditions	NOMO1 [4]	P12-Ichikawa [5]	SEM cells [6]
HPLM + 10% dialyzed FBS, 0.000781 µM	91.4	102	84.7
HPLM + 10% dialyzed FBS, 0.00234 µM	114	106	94.3
HPLM + 10% dialyzed FBS, 0.00702 µM	110	107	94.3
HPLM + 10% dialyzed FBS, 0.0211 µM	94.8	96.4	89.2
HPLM + 10% dialyzed FBS, 0.0632 µM	105	107	91.5
HPLM + 10% dialyzed FBS, 0.19 µM	107	107	101
HPLM + 10% dialyzed FBS, 0.569 µM	113	112	111
HPLM + 10% dialyzed FBS, 1.71 µM	110	111	90.8
HPLM + 10% dialyzed FBS, 5.12 µM	111	111	89.9
HPLM + 10% dialyzed FBS, 15.4 µM	97.4	103	89.3
HPLM + 10% dialyzed FBS, 46.1 µM	109	105	86.7
RPMI 5 mM glucose + 10% FBS, 0.000781 µM	99.2	102	114
RPMI 5 mM glucose + 10% FBS, 0.00234 µM	95.4	96.5	117
RPMI 5 mM glucose + 10% FBS, 0.00702 µM	113	97.1	113
RPMI 5 mM glucose + 10% FBS, 0.0211 µM	95.2	97.3	103
RPMI 5 mM glucose + 10% FBS, 0.0632 µM	102	116	126
RPMI 5 mM glucose + 10% FBS, 0.19 µM	108	113	93.7
RPMI 5 mM glucose + 10% FBS, 0.569 µM	115	104	122
RPMI 5 mM glucose + 10% FBS, 1.71 µM	56.6	97.2	121
RPMI 5 mM glucose + 10% FBS, 5.12 µM	100	112	132
RPMI 5 mM glucose + 10% FBS, 15.4 µM	110	107	109
RPMI 5 mM glucose + 10% FBS, 46.1 µM	102	111	101
RPMI 5 mM glucose + 10% dialyzed FBS, 0.000781 µM	102	97.4	81.3
RPMI 5 mM glucose + 10% dialyzed FBS, 0.00234 µM	102	105	86.1
RPMI 5 mM glucose + 10% dialyzed FBS, 0.00702 µM	93.5	105	87.5
RPMI 5 mM glucose + 10% dialyzed FBS, 0.0211 µM	105	102	88.3
RPMI 5 mM glucose + 10% dialyzed FBS, 0.0632 µM	111	113	89.3
RPMI 5 mM glucose + 10% dialyzed FBS, 0.19 µM	97.7	108	92.2
RPMI 5 mM glucose + 10% dialyzed FBS, 0.569 µM	113	105	98.9
RPMI 5 mM glucose + 10% dialyzed FBS, 1.71 µM	93.6	110	104
RPMI 5 mM glucose + 10% dialyzed FBS, 5.12 µM	99.2	105	101
RPMI 5 mM glucose + 10% dialyzed FBS, 15.4 µM	109	103	100
RPMI 5 mM glucose + 10% dialyzed FBS, 46.1 µM	99.7	113	70.8

Cc1ccc(NC(=O)c2ccc(CN3CCN(C)CC3)cc2)cc1Nc1nc(-c2cccnc2)cs1
AUC of viability dose-response curve
Conditions	NOMO1 [1]	P12-Ichikawa [2]	SEM cells [3]
HPLM + 10% dialyzed FBS	417	417	238
RPMI 5 mM glucose + 10% FBS	468	405	255
RPMI 5 mM glucose + 10% dialyzed FBS	440	406	223

cell viability [%]
Conditions	NOMO1 [4]	P12-Ichikawa [5]	SEM cells [6]
HPLM + 10% dialyzed FBS, 0.000781 µM	103	102	56.2
HPLM + 10% dialyzed FBS, 0.00234 µM	98.1	104	90.4
HPLM + 10% dialyzed FBS, 0.00702 µM	99.3	106	87.9
HPLM + 10% dialyzed FBS, 0.0211 µM	105	103	65.4
HPLM + 10% dialyzed FBS, 0.0632 µM	96.6	106	53.1
HPLM + 10% dialyzed FBS, 0.19 µM	89.3	102	47.6
HPLM + 10% dialyzed FBS, 0.569 µM	82.6	101	42.4
HPLM + 10% dialyzed FBS, 1.71 µM	75.3	92.7	32.7
HPLM + 10% dialyzed FBS, 5.12 µM	76.8	70.5	28.2
HPLM + 10% dialyzed FBS, 15.4 µM	73	57	20.2
HPLM + 10% dialyzed FBS, 46.1 µM	75.2	41.3	24.6
RPMI 5 mM glucose + 10% FBS, 0.000781 µM	95.9	105	64.8
RPMI 5 mM glucose + 10% FBS, 0.00234 µM	104	101	99
RPMI 5 mM glucose + 10% FBS, 0.00702 µM	93	110	93.2
RPMI 5 mM glucose + 10% FBS, 0.0211 µM	94.9	113	71.2
RPMI 5 mM glucose + 10% FBS, 0.0632 µM	99.4	100	70.9
RPMI 5 mM glucose + 10% FBS, 0.19 µM	102	111	51.7
RPMI 5 mM glucose + 10% FBS, 0.569 µM	89.3	89.1	43.7
RPMI 5 mM glucose + 10% FBS, 1.71 µM	108	89.7	34.8
RPMI 5 mM glucose + 10% FBS, 5.12 µM	107	63	23.6
RPMI 5 mM glucose + 10% FBS, 15.4 µM	106	50.4	15.7
RPMI 5 mM glucose + 10% FBS, 46.1 µM	74.6	49.7	17.1
RPMI 5 mM glucose + 10% dialyzed FBS, 0.000781 µM	97.2	108	54.5
RPMI 5 mM glucose + 10% dialyzed FBS, 0.00234 µM	102	112	88.4
RPMI 5 mM glucose + 10% dialyzed FBS, 0.00702 µM	98.6	109	74.7
RPMI 5 mM glucose + 10% dialyzed FBS, 0.0211 µM	104	109	65.1
RPMI 5 mM glucose + 10% dialyzed FBS, 0.0632 µM	93.4	110	63.6
RPMI 5 mM glucose + 10% dialyzed FBS, 0.19 µM	111	108	46.7
RPMI 5 mM glucose + 10% dialyzed FBS, 0.569 µM	87.1	95.5	37.5
RPMI 5 mM glucose + 10% dialyzed FBS, 1.71 µM	86.1	95.1	29.7
RPMI 5 mM glucose + 10% dialyzed FBS, 5.12 µM	85.9	62.1	22.1
RPMI 5 mM glucose + 10% dialyzed FBS, 15.4 µM	78.8	46.1	10.9
RPMI 5 mM glucose + 10% dialyzed FBS, 46.1 µM	74.3	45.4	18

CC[C@H](CC#N)OC(=O)N[C@@H](C)c1cccc(NC(=O)Nc2ccc(-c3cnco3)c(OC)c2)c1
AUC of viability dose-response curve
Conditions	NOMO1 [1]	P12-Ichikawa [2]	SEM cells [3]
HPLM + 10% dialyzed FBS	371	384	356
RPMI 5 mM glucose + 10% FBS	368	359	347
RPMI 5 mM glucose + 10% dialyzed FBS	379	363	408

cell viability [%]
Conditions	NOMO1 [4]	P12-Ichikawa [5]	SEM cells [6]
HPLM + 10% dialyzed FBS, 0.000781 µM	117	117	105
HPLM + 10% dialyzed FBS, 0.00234 µM	114	112	98.7
HPLM + 10% dialyzed FBS, 0.00702 µM	119	120	111
HPLM + 10% dialyzed FBS, 0.0211 µM	105	–	119
HPLM + 10% dialyzed FBS, 0.0632 µM	127	111	118
HPLM + 10% dialyzed FBS, 0.19 µM	111	107	86.2
HPLM + 10% dialyzed FBS, 0.569 µM	98.2	106	71.8
HPLM + 10% dialyzed FBS, 1.71 µM	76.4	74.9	74.8
HPLM + 10% dialyzed FBS, 5.12 µM	38.9	49.8	44.5
HPLM + 10% dialyzed FBS, 15.4 µM	32.1	49.1	30.3
HPLM + 10% dialyzed FBS, 46.1 µM	35.1	40.6	31.6
RPMI 5 mM glucose + 10% FBS, 0.000781 µM	111	119	108
RPMI 5 mM glucose + 10% FBS, 0.00234 µM	104	121	112
RPMI 5 mM glucose + 10% FBS, 0.00702 µM	121	118	114
RPMI 5 mM glucose + 10% FBS, 0.0211 µM	107	117	118
RPMI 5 mM glucose + 10% FBS, 0.0632 µM	114	132	112
RPMI 5 mM glucose + 10% FBS, 0.19 µM	105	113	96
RPMI 5 mM glucose + 10% FBS, 0.569 µM	113	97.2	76.3
RPMI 5 mM glucose + 10% FBS, 1.71 µM	66.8	65.9	68
RPMI 5 mM glucose + 10% FBS, 5.12 µM	38.3	44.3	47.7
RPMI 5 mM glucose + 10% FBS, 15.4 µM	25.9	33.4	30.2
RPMI 5 mM glucose + 10% FBS, 46.1 µM	22.3	30.4	18.1
RPMI 5 mM glucose + 10% dialyzed FBS, 0.000781 µM	117	112	107
RPMI 5 mM glucose + 10% dialyzed FBS, 0.00234 µM	106	120	110
RPMI 5 mM glucose + 10% dialyzed FBS, 0.00702 µM	115	111	124
RPMI 5 mM glucose + 10% dialyzed FBS, 0.0211 µM	120	120	105
RPMI 5 mM glucose + 10% dialyzed FBS, 0.0632 µM	111	121	105
RPMI 5 mM glucose + 10% dialyzed FBS, 0.19 µM	112	110	112
RPMI 5 mM glucose + 10% dialyzed FBS, 0.569 µM	91	90.4	100
RPMI 5 mM glucose + 10% dialyzed FBS, 1.71 µM	84	59.1	99.6
RPMI 5 mM glucose + 10% dialyzed FBS, 5.12 µM	51.9	42.3	67.9
RPMI 5 mM glucose + 10% dialyzed FBS, 15.4 µM	39.4	40.2	43.3
RPMI 5 mM glucose + 10% dialyzed FBS, 46.1 µM	35.8	40.6	38.7

— the supplement of paper PMC11451515
